Assay results from article PMC9008208 (Frontiers in Cellular Neuroscience, 2022).

Key:
α9α10 nAChR = target: T1, α9α10 nAChR (Homo sapiens, UniProt Q9GZZ6+Q9UGM1); test: two-electrode voltage clamp, Xenopus oocytes, concentration-response (partial agonist); assay type: cell-based
T1 construct: gene CHRNA9; with nAChR subunit α10 (CHRNA10)

α9 nAChR = target: T2, α9 nAChR (Homo sapiens, UniProt Q9UGM1); test: as above; assay type: cell-based
T2 construct: gene CHRNA9
T2 sequence (Q9UGM1 23-479): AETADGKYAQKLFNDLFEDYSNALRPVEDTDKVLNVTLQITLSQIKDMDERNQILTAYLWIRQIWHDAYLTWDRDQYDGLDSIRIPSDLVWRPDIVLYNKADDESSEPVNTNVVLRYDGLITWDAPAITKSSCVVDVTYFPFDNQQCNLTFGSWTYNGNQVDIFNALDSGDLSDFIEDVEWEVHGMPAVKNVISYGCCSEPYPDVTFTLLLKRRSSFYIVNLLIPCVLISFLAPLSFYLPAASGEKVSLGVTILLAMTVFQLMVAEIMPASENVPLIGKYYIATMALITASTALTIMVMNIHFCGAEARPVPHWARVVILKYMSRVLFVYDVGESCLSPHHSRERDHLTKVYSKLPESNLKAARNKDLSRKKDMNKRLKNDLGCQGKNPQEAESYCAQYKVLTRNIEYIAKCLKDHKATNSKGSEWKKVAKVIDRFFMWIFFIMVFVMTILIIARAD

T1 sequence (Q9UGM1 23-479): as above
T1 sequence (Q9GZZ6 25-450): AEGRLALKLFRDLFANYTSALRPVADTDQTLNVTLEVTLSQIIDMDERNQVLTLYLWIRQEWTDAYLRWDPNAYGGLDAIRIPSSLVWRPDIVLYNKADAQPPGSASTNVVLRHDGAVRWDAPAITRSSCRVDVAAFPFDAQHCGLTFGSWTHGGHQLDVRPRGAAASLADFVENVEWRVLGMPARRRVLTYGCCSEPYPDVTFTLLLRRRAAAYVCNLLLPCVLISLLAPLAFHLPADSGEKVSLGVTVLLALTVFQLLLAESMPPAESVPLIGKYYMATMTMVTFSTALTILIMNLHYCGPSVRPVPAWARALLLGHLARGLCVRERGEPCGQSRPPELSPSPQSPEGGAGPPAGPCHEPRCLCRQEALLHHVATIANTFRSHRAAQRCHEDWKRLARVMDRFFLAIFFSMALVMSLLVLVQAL

EC50 (α9α10 nAChR): 6.4 µM
EC50 (α9 nAChR): 7 µM
Structure (SMILES): CC[N+]1(CC)CCN(c2ccc(C(F)(F)F)cc2)CC1 [pCF3-diEPP]
